Measurements reported in patent US12161647B2, “Treating hearing loss” (Massachusetts Eye and Ear Infirmary, priority 2012, dated 2024).

Columns and labels:
[1] = Toxicity of systemic LY411575; assay type: in vivo; settings: 50 mg/kg for 5 d
Description: For systemic administration, LY411575 (50 mg/kg) dissolved in 0.5% (wt/vol) methylcellulose (WAKO) was injected orally once daily for 5 consecutive d. Hearing was measured by ABR at 1 d before, 2 d, 1, 2 week, 1, 2 and 3 months after noise exposure.
Preliminary range finding experiments for drug treatment were carried out by systemic injection and were limited by toxicity. A minimal dosing regimen for an effect on the thymus weight was chosen (43, 44).

[2] = tested on: inner ear spheres made from Math1-nGFP mice; experiment: Hair cell differentiation from utricular spheres of neonatal Math1-nGFP reporter mice; assay type: cell-based, mouse; settings: compared with DAPT, L-685458, MDL28170; normalized to DMSO
Description: The utricles and cochleae of 1- to 3-d-postnatal mice of both sexes were dissected, and after careful removal of the nerve trunk and mesenchymal tissues, were trypsinized and dissociated. Dissociated cells were centrifuged, and the pellet was resuspended and filtered through a 70 μm cell strainer (BD Biosciences Discovery Labware) in DMEM/F12 medium with N2/B27 supplement, EGF (20 ng/ml), IGF1 (50 ng/ml), bFGF (10 ng/ml), and heparan sulfate (50 ng/ml) (Sigma). The single cells were cultured in nonadherent Petri dishes (Greiner Bio-One) to initiate clonal growth of spheres (49). Spheres that formed after 2-3 d in culture were passaged every 4-6 d. […]
Cell counting for spheres was performed with MetaMorph software. The cell number was determined from DAPI- or Hoechst-positive nuclei. […] For explants, inner hair cells, outer hair cells, and supporting cells in the outer hair cell region were counted on cochlear whole mounts. […] High-power images of the full-length cochlea or cochlear explant cultures were assembled and analyzed in PhotoShop CS4 (Adobe). ImageJ software (NIH) was used to measure the total length of cochlear whole mounts and the length of individual counted segments. The total number of inner hair cells, outer hair cells, and supporting cells in the outer hair cell region was counted in each of four cochlear segments of 1200-1400 μm (apical, mid-apical, mid-basal, and basal). […]

[3] = tested on: neonatal organ of Corti explants; experiment: Neonatal organ of Corti explant culture, hair cell number; assay type: cell-based, mouse
Description: Cochleae of 3-d-postnatal C57BL/6 or Mos-iCsp3; Pou4f3-Cre double transgenic mice of both sexes were dissected in Hanks solution (Invitrogen). To obtain a flat cochlear surface preparation, the spiral ganglion, Reissner's membrane, and the most basal cochlear segment were removed. Explants were plated onto 4 well plates (Greiner Bio-One) coated with poly-L-ornithine (0.01%, Sigma) and laminin (50 μg/ml, Becton Dickinson). Cochlear explants were cultured in DMEM (Invitrogen) with 10% fetal bovine serum. All cultures were maintained in a 5% CO2/20% O2-humidified incubator (Forma Scientific).
For explants, the organs of Corti were fixed for 15 min with 4% paraformaldehyde in PBS. […] Primary antibodies were detected with secondary antibodies conjugated with Alexa 488 and 647 (Molecular Probes). The samples were stained with rhodamine phalloidin (Invitrogen) for 15 min and viewed by confocal fluorescence microscopy (TCS SP5, Leica).
Cell counting for spheres was performed with MetaMorph software. The cell number was determined from DAPI- or Hoechst-positive nuclei. […] For explants, inner hair cells, outer hair cells, and supporting cells in the outer hair cell region were counted on cochlear whole mounts. […] High-power images of the full-length cochlea or cochlear explant cultures were assembled and analyzed in PhotoShop CS4 (Adobe). […] Density (cells per 100 μm) was then calculated for each segment. […]

SMILES: C[C@H](NC(=O)[C@@H](O)c1cc(F)cc(F)c1)C(=O)N[C@@H]1C(=O)N(C)c2ccccc2-c2ccccc21 [LY411575, N-2((2S)-2-(3,5-difluorophenyl)-2-hydroxyethanoyl)-N1-((7S)-5-methyl-6-oxo-6,7-dihydro-5H-dibenzo[b,d]azepin-7-yl)-l-alaninamide]
- side-effects in treated mice [1]: significant side-effects
- thymus total number of cells decreased to [1]: 1/40
- mice (of 12) that could be tested for ABR at 3 months; the rest died within the first week ([1]; deaths due to severe diarrhea and weight loss): 6 mice
- thymus double positive fraction of CD4 and CD8 after treatment ([1]; decreased from 78.6%): 1.23%
- weight loss in surviving mice ([1]; in 3 d): approximately 15%
- spleen finding ([1]; in a week): severe atrophy
- potency for hair cell induction (nGFP-positive cells to DAPI-positive cells) among the four γ-secretase inhibitors [2]: highest potency
- increase in number of myosin VIIa-positive cells in the outer hair cell region compared to the control ([3]; LY411575 1 μM, 72 h, p<0.05): 30 cells/100 μm
- number of hair cells in wild-type organ of Corti (Wt) ([3]; apex, mid-apex and mid-base, cultured 3 d): Increased
